We go through 5 molecules from the supplement of paper PMC10307832.

In one assay the test system is SK-LU-1. Nature of the assay: relative viability (nuclei count vs DMSO), 5 days (fraction); higher = more cells survive. The settings on record: first compound 8 µM. Put shortly:
(§1)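 Dosing by pin tool came one day after lung cancer cell lines were seeded in 1536-well plates, using either one drug or a fixed anchor-drug dose plus five library-drug doses (not always all listed) in √10 steps. After 5 days, nuclei were counted on 4× images. Relative viability is treated-well nuclei count divided by vehicle-well nuclei count, and values are medians of duplicate plates.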
In turn, `CCCCCCCCCCCC1=C(O)C(=O)C=C(O)C1=O` [Embelin] + CS(=O)(=O)N1CCN(Cc2cc3nc(-c4cccc5[nH]ncc45)nc(N4CCOCC4)c3s2)CC1 [Pictilisib] (partner 1 µM) displayed a relative viability of 0.541.
`CCCCCCCCCCCC1=C(O)C(=O)C=C(O)C1=O` [Embelin] + Cc1nc(NC(=O)N2CCC[C@H]2C(N)=O)sc1-c1ccnc(C(C)(C)C(F)(F)F)c1 [Alpelisib] (partner 2 µM) displayed a relative viability of 0.904.

The next assay has as its system NCI-H1755. The assay is described as above. The settings on record: first compound 0.08 µM. Put shortly: as §1
Regarding `CCCCCCCCCCCC1=C(O)C(=O)C=C(O)C1=O` [Embelin] + COc1cc2c(Oc3ccc(NC(=O)C4(C(=O)Nc5ccc(F)cc5)CC4)cc3F)ccnc2cc1OCCCN1CCOCC1 [Foretinib] (partner 0.25 µM), the relative viability was determined as 0.912.
On the same count and under the same terms, the same measure for `CCCCCCCCCCCC1=C(O)C(=O)C=C(O)C1=O` [Embelin] + CC(=O)Nc1cccc(-n2c(=O)n(C3CC3)c(=O)c3c(Nc4ccc(I)cc4F)n(C)c(=O)c(C)c32)c1 [Trametinib] (partner 0.02 µM): 0.816.
On to `CCCCCCCCCCCC1=C(O)C(=O)C=C(O)C1=O` [Embelin] + CS(=O)(=O)N1CCN(Cc2cc3nc(-c4cccc5[nH]ncc45)nc(N4CCOCC4)c3s2)CC1 [Pictilisib] (partner 1 µM), for which the relative viability is 0.502.
Still for that read-out and setting: the same measure for `CCCCCCCCCCCC1=C(O)C(=O)C=C(O)C1=O` [Embelin] + NC(=O)Nc1cc(-c2cccc(F)c2)sc1C(=O)N[C@H]1CCCNC1 [AZD7762] (partner 0.2 µM): 0.432.
The same measure, in the same setting: the value for `CCCCCCCCCCCC1=C(O)C(=O)C=C(O)C1=O` [Embelin] + Cc1nc(NC(=O)N2CCC[C@H]2C(N)=O)sc1-c1ccnc(C(C)(C)C(F)(F)F)c1 [Alpelisib] (partner 2 µM) was 0.906.

Still in this assay, the particulars now being: first compound 0.8 µM.
With `CCCCCCCCCCCC1=C(O)C(=O)C=C(O)C1=O` [Embelin] + COc1cc2c(Oc3ccc(NC(=O)C4(C(=O)Nc5ccc(F)cc5)CC4)cc3F)ccnc2cc1OCCCN1CCOCC1 [Foretinib] (partner 0.25 µM), the relative viability turned out to be 0.948.
Same read-out and setting: the same measure for `CCCCCCCCCCCC1=C(O)C(=O)C=C(O)C1=O` [Embelin] + CC(=O)Nc1cccc(-n2c(=O)n(C3CC3)c(=O)c3c(Nc4ccc(I)cc4F)n(C)c(=O)c(C)c32)c1 [Trametinib] (partner 0.02 µM): 0.75.
Still for that read-out and setting: the same measure for `CCCCCCCCCCCC1=C(O)C(=O)C=C(O)C1=O` [Embelin] + CS(=O)(=O)N1CCN(Cc2cc3nc(-c4cccc5[nH]ncc45)nc(N4CCOCC4)c3s2)CC1 [Pictilisib] (partner 1 µM): 0.499.
The same measure, in the same setting: the value for `CCCCCCCCCCCC1=C(O)C(=O)C=C(O)C1=O` [Embelin] + NC(=O)Nc1cc(-c2cccc(F)c2)sc1C(=O)N[C@H]1CCCNC1 [AZD7762] (partner 0.2 µM) was 0.477.
With `CCCCCCCCCCCC1=C(O)C(=O)C=C(O)C1=O` [Embelin] + Cc1nc(NC(=O)N2CCC[C@H]2C(N)=O)sc1-c1ccnc(C(C)(C)C(F)(F)F)c1 [Alpelisib] (partner 2 µM), the relative viability was 0.966.

Still in this assay, the particulars now being: first compound 2.53 µM.
`CCCCCCCCCCCC1=C(O)C(=O)C=C(O)C1=O` [Embelin] + COc1cc2c(Oc3ccc(NC(=O)C4(C(=O)Nc5ccc(F)cc5)CC4)cc3F)ccnc2cc1OCCCN1CCOCC1 [Foretinib] (partner 0.25 µM) registered a relative viability of 0.927.
As for `CCCCCCCCCCCC1=C(O)C(=O)C=C(O)C1=O` [Embelin] + CC(=O)Nc1cccc(-n2c(=O)n(C3CC3)c(=O)c3c(Nc4ccc(I)cc4F)n(C)c(=O)c(C)c32)c1 [Trametinib] (partner 0.02 µM), the relative viability amounted to 0.841.
Consider `CCCCCCCCCCCC1=C(O)C(=O)C=C(O)C1=O` [Embelin] + CS(=O)(=O)N1CCN(Cc2cc3nc(-c4cccc5[nH]ncc45)nc(N4CCOCC4)c3s2)CC1 [Pictilisib] (partner 1 µM), for which the relative viability is 0.367.
With `CCCCCCCCCCCC1=C(O)C(=O)C=C(O)C1=O` [Embelin] + NC(=O)Nc1cc(-c2cccc(F)c2)sc1C(=O)N[C@H]1CCCNC1 [AZD7762] (partner 0.2 µM), the relative viability was determined as 0.45.
Same read-out and setting: the same measure for `CCCCCCCCCCCC1=C(O)C(=O)C=C(O)C1=O` [Embelin] + Cc1nc(NC(=O)N2CCC[C@H]2C(N)=O)sc1-c1ccnc(C(C)(C)C(F)(F)F)c1 [Alpelisib] (partner 2 µM): 0.994.

Staying with this assay, now noted: first compound 8 µM.
Molecule `CCCCCCCCCCCC1=C(O)C(=O)C=C(O)C1=O` [Embelin] + COc1cc2c(Oc3ccc(NC(=O)C4(C(=O)Nc5ccc(F)cc5)CC4)cc3F)ccnc2cc1OCCCN1CCOCC1 [Foretinib] (partner 0.25 µM) showed a relative viability of 0.906.
Molecule `CCCCCCCCCCCC1=C(O)C(=O)C=C(O)C1=O` [Embelin] + CC(=O)Nc1cccc(-n2c(=O)n(C3CC3)c(=O)c3c(Nc4ccc(I)cc4F)n(C)c(=O)c(C)c32)c1 [Trametinib] (partner 0.02 µM) had a relative viability of 0.723.
Take `CCCCCCCCCCCC1=C(O)C(=O)C=C(O)C1=O` [Embelin] + CS(=O)(=O)N1CCN(Cc2cc3nc(-c4cccc5[nH]ncc45)nc(N4CCOCC4)c3s2)CC1 [Pictilisib] (partner 1 µM): the relative viability is 0.333.
Same read-out and setting: the same measure for `CCCCCCCCCCCC1=C(O)C(=O)C=C(O)C1=O` [Embelin] + NC(=O)Nc1cc(-c2cccc(F)c2)sc1C(=O)N[C@H]1CCCNC1 [AZD7762] (partner 0.2 µM): 0.429; for `CCCCCCCCCCCC1=C(O)C(=O)C=C(O)C1=O` [Embelin] + Cc1nc(NC(=O)N2CCC[C@H]2C(N)=O)sc1-c1ccnc(C(C)(C)C(F)(F)F)c1 [Alpelisib] (partner 2 µM): 0.934.

A further assay deals with SW 1573. The description is as above. The settings on record: first compound 0.08 µM. Put shortly: as §1
`CCCCCCCCCCCC1=C(O)C(=O)C=C(O)C1=O` [Embelin] + COc1cc2c(Oc3ccc(NC(=O)C4(C(=O)Nc5ccc(F)cc5)CC4)cc3F)ccnc2cc1OCCCN1CCOCC1 [Foretinib] (partner 0.25 µM) displayed a relative viability of 0.974.
Still for that read-out and setting: the same measure for `CCCCCCCCCCCC1=C(O)C(=O)C=C(O)C1=O` [Embelin] + CC(=O)Nc1cccc(-n2c(=O)n(C3CC3)c(=O)c3c(Nc4ccc(I)cc4F)n(C)c(=O)c(C)c32)c1 [Trametinib] (partner 0.02 µM): 0.604; for `CCCCCCCCCCCC1=C(O)C(=O)C=C(O)C1=O` [Embelin] + CS(=O)(=O)N1CCN(Cc2cc3nc(-c4cccc5[nH]ncc45)nc(N4CCOCC4)c3s2)CC1 [Pictilisib] (partner 1 µM): 0.475.
On the same count and under the same terms, the same measure for `CCCCCCCCCCCC1=C(O)C(=O)C=C(O)C1=O` [Embelin] + Cc1nc(NC(=O)N2CCC[C@H]2C(N)=O)sc1-c1ccnc(C(C)(C)C(F)(F)F)c1 [Alpelisib] (partner 2 µM): 0.815.

Still in this assay, the particulars now being: first compound 0.8 µM.
The molecule `CCCCCCCCCCCC1=C(O)C(=O)C=C(O)C1=O` [Embelin] + COc1cc2c(Oc3ccc(NC(=O)C4(C(=O)Nc5ccc(F)cc5)CC4)cc3F)ccnc2cc1OCCCN1CCOCC1 [Foretinib] (partner 0.25 µM) had a relative viability of 0.998.
The same measure, in the same setting: the value for `CCCCCCCCCCCC1=C(O)C(=O)C=C(O)C1=O` [Embelin] + CC(=O)Nc1cccc(-n2c(=O)n(C3CC3)c(=O)c3c(Nc4ccc(I)cc4F)n(C)c(=O)c(C)c32)c1 [Trametinib] (partner 0.02 µM) was 0.636.
